Data reported in US10407445B2, “Hepatitis C virus inhibitors” (ENANTA PHARMACEUTICALS, INC., priority 2013, dated 2019).

How the values were obtained:
[1] = test system: HCV genotype 1b replicon Huh7-lunet cells; experiment: Resistance barrier analysis in HCV genotype 1b replicon cells (crystal violet staining); assay type: cell-based, Hepatitis C virus; details: 2×EC50, 3 weeks in the presence of G418
Protocol: Stable HCV genotype 1b replicon Huh7-lunet cells were plated in 100 mm cell culture dishes (1.5×10^5 and 3×10^5 cells/dish for DMSO control and compound treated cells, respectively) and incubated for 24 hr (37° C., 5% CO2) prior to compound addition. Compounds (solubilized in DMSO) were prepared in complete media (0.5% DMSO final) and added to cells. Cells were maintained in the presence of compound (or DMSO) and G418 (500 μg/mL) for 3 weeks with media replacement two times per week. Cells were then fixed (4% paraformaldehyde, 30 min at room temperature) and stained (0.5% crystal violet/25% methanol, 20 min room temperature) to allow visualization of surviving cells. Plates were then washed with water to remove excess stain and left to air dry overnight prior to imaging (BioRad Gel Doc XR+Molecular Imager).
FIG. 1 illustrates comparison of a compound of the invention to daclatasvir in a test that provides a qualitative indication of the occurrence of resistance. […] The control plate, with DMSO alone (no compound 16 or daclatasvir), is almost completely opaque.

GT4a-ED43 replicon = experiment: Stable replicon assay, comparison to daclatasvir, GT4a-ED43; assay type: cell-based; details: Hepatitis C virus
From the text: The GT3a-S52 replicon plasmid pSGRlucneo-GT3a-S52-HDVR-(ISH) was synthesized by Genscript. This plasmid encodes a GT3a (strain S52, accession GU814264) bicistronic subgenomic replicon encoding the hRluc-Neo reporter gene in the first cistron and NS3-NS5B, driven by an encephalomyocarditis virus (EMCV) internal ribosome entry site (IRES), in the second cistron. The hepatitis delta ribozyme (HDVR) was included after the HCV 3′ NTR followed by a unique SpeI restriction site for linearization. This replicon encodes three cell culture adaptive mutations, P1226S (NS3), D1437H (NS3), and S2210I (NS5A), as described previously (Saeed et al 2012 Antimicrob. Agents Chemother. 54: 1878-1887). The GT4a-ED43 replicon plasmid pSGRlucneo-GT4a-ED43-HDVR-(KG) was synthesized by Genscript. […]
Stable HCV replicon cell lines were grown in complete media (Dulbecco's modified Eagle medium [DMEM], 2 mM L-glutamine, 0.1 mM essential amino acids, 1 mM sodium pyruvate, 10% fetal bovine serum) with the addition 500 μg/ml […] (G418). […] For stable and transient replicon assays, luciferase activity of compound-treated cells was measured relative to DMSO-treated cells after 72 h incubation using RENILLA-GLO™ Luciferase Assay (Promega). […]

| SMILES | surviving replicon cells (crystal violet staining) [1] | EC50 (GT4a-ED43 replicon) |
| --- | --- | --- |
| COC(=O)N[C@H](C(=O)N1C[C@]2(CCCOC2)C[C@H]1c1ncc(-c2ccc(-c3ccc4c(ccc5nc([C@@H]6C[C@@H]7CCC[C@@H]7N6C(=O)[C@@H](NC(=O)OC)C(C)C)[nH]c54)c3)cc2)[nH]1)C(C)C [Compound 16] | almost entirely prevented replicon cell survival | 11 pM |
| COC(=O)N[C@H](C(=O)N1CCC[C@H]1c1nc(-c2ccc(-c3ccc(-c4c[nH]c([C@@H]5CCCN5C(=O)[C@@H](NC(=O)OC)C(C)C)n4)cc3)cc2)c[nH]1)C(C)C [Daclatasvir, reference compound] | – | 25 pM |
